We go through 15 compounds from ChEMBL document CHEMBL5223086, “Recent Progress and Clinical Development of Inhibitors that Block MDM4/p53 Protein-Protein Interactions” (J Med Chem, 2021).

Peptide text beside a SMILES is read from it.

Assay [1] deals with T1, Protein Mdm4 (Homo sapiens, UniProt O15151).
T1 sequence (O15151 whole entry): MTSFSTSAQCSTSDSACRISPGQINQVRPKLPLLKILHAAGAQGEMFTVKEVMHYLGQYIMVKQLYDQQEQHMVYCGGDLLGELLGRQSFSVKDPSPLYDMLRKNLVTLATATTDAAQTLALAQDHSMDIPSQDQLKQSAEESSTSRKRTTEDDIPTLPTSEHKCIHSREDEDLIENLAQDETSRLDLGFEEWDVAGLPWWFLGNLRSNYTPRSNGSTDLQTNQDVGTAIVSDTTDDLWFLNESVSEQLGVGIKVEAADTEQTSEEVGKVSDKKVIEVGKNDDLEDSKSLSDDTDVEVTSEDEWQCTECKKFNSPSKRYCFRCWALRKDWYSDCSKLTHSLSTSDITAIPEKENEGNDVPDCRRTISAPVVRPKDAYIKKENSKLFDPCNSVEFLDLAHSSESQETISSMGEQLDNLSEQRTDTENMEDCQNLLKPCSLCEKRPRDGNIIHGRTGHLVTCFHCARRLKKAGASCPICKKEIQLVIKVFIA
The experiment in a line: Inhibition of human MDM4 by ELISA assay. In general terms: An ELISA detects its analyte on a solid surface through an enzyme-linked reagent.

In assay [2] the target is T2, E3 ubiquitin-protein ligase Mdm2 (Homo sapiens, UniProt Q00987). The experiment in a line: Inhibition of human MDM2 by TR-FRET assay. For orientation: Time-resolved FRET reads energy transfer from a long-lived donor to a nearby acceptor.
T2 sequence (Q00987 whole entry): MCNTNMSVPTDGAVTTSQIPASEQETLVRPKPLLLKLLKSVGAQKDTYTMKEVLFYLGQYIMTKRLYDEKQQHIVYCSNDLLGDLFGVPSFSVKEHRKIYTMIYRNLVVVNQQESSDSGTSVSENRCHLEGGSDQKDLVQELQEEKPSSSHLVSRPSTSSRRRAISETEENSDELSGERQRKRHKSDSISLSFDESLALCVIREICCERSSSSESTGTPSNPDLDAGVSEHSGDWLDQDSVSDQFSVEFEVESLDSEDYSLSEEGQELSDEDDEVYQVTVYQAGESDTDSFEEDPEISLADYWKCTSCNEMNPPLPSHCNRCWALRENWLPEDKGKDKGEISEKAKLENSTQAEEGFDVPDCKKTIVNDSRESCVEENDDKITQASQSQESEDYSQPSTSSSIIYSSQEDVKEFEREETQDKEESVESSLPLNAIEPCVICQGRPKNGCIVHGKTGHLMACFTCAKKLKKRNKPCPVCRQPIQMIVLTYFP
Assay [3] concerns MCF7. The experiment in a line: Anticancer activity against […] relative to contol. The following applies: read-out: TGI. The assay is classed as functional. On the technique in general: Tetrazolium dyes change colour on reduction, which living cells bring about.
In assay [4] the target is T3, Tumour suppressor protein p53/Mdm4 (Homo sapiens, UniProt O15151+P04637). The experiment in a line: Inhibition of human MDM4/p53 interaction by SPR analysis. The assay is classed as protein assay.
T3 sequence (P04637 whole entry, one chain of several): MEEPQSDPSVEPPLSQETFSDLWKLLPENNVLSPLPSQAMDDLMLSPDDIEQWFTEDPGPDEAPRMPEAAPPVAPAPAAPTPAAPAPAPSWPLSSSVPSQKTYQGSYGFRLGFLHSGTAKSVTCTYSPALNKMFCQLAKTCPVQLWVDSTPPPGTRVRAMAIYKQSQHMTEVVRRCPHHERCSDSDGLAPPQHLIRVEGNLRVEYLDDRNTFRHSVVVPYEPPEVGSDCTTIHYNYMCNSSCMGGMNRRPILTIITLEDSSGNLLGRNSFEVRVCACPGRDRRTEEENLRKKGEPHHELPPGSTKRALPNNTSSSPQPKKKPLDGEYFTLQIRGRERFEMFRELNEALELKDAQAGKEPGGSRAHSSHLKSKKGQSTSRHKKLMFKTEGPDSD
Assay [5] has as its target T3, Tumour suppressor protein p53/Mdm4. The experiment in a line: Inhibition of human MDM4/p53 interaction by TR-FRET assay. The assay is classed as protein assay.
The target in assay [6] is T2, E3 ubiquitin-protein ligase Mdm2. Briefly: Binding affinity to human MDM2 assessed as dissociation constant.
The target of assay [7] is T1, Protein Mdm4. Briefly: Binding affinity to human MDM4 assessed as inhibition constant.
Assay [8] has as its target T3, Tumour suppressor protein p53/Mdm4. Briefly: Inhibition of human MDM4/p53 interaction by FP assay. It is filed as protein assay.
Assay [9] relates to MCF7. The experiment in a line: Anticancer activity against human MCF7 cells assessed as cell viability at 30 mg/kg by MTT assay relative to contol. The following applies: MCF7, read-out: TGI.
In assay [10] the target is T1, Protein Mdm4. Briefly: Inhibition of human MDM4.
The target of assay [11] is T2, E3 ubiquitin-protein ligase Mdm2. The experiment in a line: Inhibition of human MDM2.
Assay [12] deals with T1, Protein Mdm4. Briefly: Inhibition of MDM4 assessed as dissociation constant.
Assay [13] has as its target T1, Protein Mdm4. Briefly: Inhibition of human MDM4 by TR-FRET assay.
Assay [14] deals with T1, Protein Mdm4. The experiment in a line: Inhibition of human his-tagged MDM4 assessed as dissociation constant by ITC assay.

As usually defined, the IC50 is the concentration that inhibits the measured activity by half. At Protein Mdm4 [1], H-ETFEHWWSQLLS-OH gave a half-inhibitory concentration (IC50) of 110 nM.

Take `COc1cccc2c(C(=O)N[C@H]3CCN(c4ccc(C)cc4)C3)c[nH]c12`: the IC50 in assay [2] was above 50000 nM.

With `CCOc1cc(C(C)(C)C)ccc1C1=N[C@@](C)(c2ccc(Cl)cc2)[C@@](C)(c2ccc(Cl)cc2)N1C(=O)N1CCN(CCCS(C)(=O)=O)CC1` [RO-5045337], in the assay with MCF7 [3], the inhibition in vivo turned out to be 61%.

Compound `CC(C)C[C@H](NC(=O)[C@H](CS)NC(=O)[C@H](CCCNC(=N)N)NC(=O)[C@H](Cc1c[nH]c2ccccc12)NC(=O)[C@H](Cc1ccc(O)cc1)NC(=O)[C@H](CS)NC(=O)[C@H](CC(C)C)NC(=O)[C@H](Cc1ccccc1)NC(=O)[C@@H](NC(=O)[C@H](CCC(=O)O)NC(=O)[C@@H]1CCCN1C(=O)[C@H](C)NC(=O)[C@H](CCCCN)NC(=O)[C@H](CS)NC(=O)[C@H](CC(N)=O)NC(=O)[C@@H](N)CS)[C@@H](C)O)C(=O)N[C@@H](CCC(N)=O)C(=O)N[C@@H](Cc1c[nH]cn1)C(N)=O` (H-CNCKAPETFLCYWRCLQH-NH2) showed an IC50 in [4] of 11.4 nM.

Regarding `COc1nc(N(C)C)ncc1-c1nc2c(n1C(C)C)[C@H](c1ccc(C#N)cc1)N(c1cc(Cl)cn(C)c1=O)C2=O`, 1300 nM corresponded to half-maximal inhibition in assay [5] (IC50).

A word on the Ki: it is the equilibrium dissociation constant of an inhibitor or competing ligand from its target. On to `O=C(CN(Cc1ccc(Cl)cc1)C(=O)c1cc2ccccc2[nH]1)NC1CCCCC1`, for which, in [6], the Ki was 5500 nM.

Take `COc1ncc(-c2nc3c(n2C(C)C)C(c2ccc(Cl)cc2)N(c2cc(Cl)cn(C)c2=O)C3=O)c(OC)n1` (stereo unspecified): the IC50 on Protein Mdm4 [7] is 3000 nM.

For `COc1ncc(-c2nc3c(n2C(C)C)[C@H](c2ccc(C#N)cc2)N([C@@H](C)c2cccc(Cl)c2)C3=O)c(OC)n1`, in assay [5], the midpoint of inhibition, the IC50, lay at 580 nM.

For the compound `Cc1cc(Cl)ccc1NCc1ccc(CN(C=O)C(C(=O)NC(C)(C)C)c2c(C(=O)O)[nH]c3cc(Cl)ccc23)cc1` (stereo unspecified), the affinity in assay [8], expressed as Ki, was 3730 nM.

Take `CC(=O)N[C@@H](CC(C)C)C(=O)N[C@H](C(=O)N[C@@H](Cc1ccccc1)C(=O)N[C@]1(C)CCCCCC/C=C/CCC[C@@](C)(C(=O)N[C@@H](C)C(=O)N[C@@H](C)C(=O)N[C@@H](C)C(=O)N[C@@H](C)C(=O)N[C@H](C)C(N)=O)NC(=O)[C@H](CC(C)C)NC(=O)[C@H](CCC(N)=O)NC(=O)[C@H](C)NC(=O)[C@H](Cc2c[nH]c3ccccc23)NC(=O)[C@H](Cc2ccc(O)cc2)NC(=O)[C@H](C)NC1=O)[C@@H](C)O`: in the assay with MCF7 [9], the inhibition in vivo at 30 mg/kg stood at 61%.

As a reminder, the EC50 is the concentration giving half of the maximal effect. A higher EC50 goes with lower potency in that assay. Turning to `COOc1cc(/C=C2\C(=O)N(c3ccccc3)N=C2C)cc(Cl)c1OCC(=O)OC`, the EC50 on Protein Mdm4 [10] was 2300 nM; in assay [11], 26000 nM.

Broadly, the Kd is the equilibrium constant for the complex coming apart. `COc1cc(C(=O)O)ccc1NC(=O)[C@@H]1N[C@@H](CC(C)(C)C)[C@](C#N)(c2ccc(Cl)cc2F)[C@H]1c1cccc(Cl)c1F` [IDASANUTLIN]: the dissociation constant (Kd) on Protein Mdm4 [12] is below 100 nM.

`C[C@@H](c1cccc(Cl)c1)n1cnc(-c2ccccc2)c1-c1c(C(=O)Nc2cc(C(=O)O)ccc2N2CCC(N3CCCOC3=O)CC2)[nH]c2cc(Cl)ccc12` returned an IC50 against Protein Mdm4 [13] of 17 nM.

For `C[C@@H](c1cccc(Cl)c1)n1cnc(-c2ccccc2)c1-c1c(C(=O)NCCN2CCN(C3CCCCC3)CC2)[nH]c2cc(Cl)ccc12`, the IC50 on Protein Mdm4 [13] turned out to be 145 nM.

Consider `CC(C)(C)Oc1cc(C(=O)CC(N)=O)ccc1C1=N[C@@H](c2ccc(C(=O)O)cc2)[C@@H](c2c[nH]c3ccccc23)N1C(=O)N1CCNC(=O)C1`, for which, at Protein Mdm4 [14], the Kd was found to be 27 nM.
